Values after ≈ are worked out from the molar mass of the structure shown. Where two headings read alike, the source gives them in different places.
How the values were obtained:
[1] = system: Staphylococcus aureus; experiment: Broth Macro Dilution Test, MIC and MBC; type: cell-based; settings: Example 12: strain from non-healing burn wound swab culture, antibiotic alone
Protocol: (§1) This was done by estimation of the Minimum Inhibitory Concentration (MIC) and Minimum Bactericidal Concentration (MBC) on the selected isolates by a Broth Macro Dilution Test.
(§2) Cation Supplemented Mueller Hinton Broth was used as medium for all organisms excepting for β haemolytic streptococci for which, Todd Hewit's Broth was used as medium.
(§3) The following concentrations of antibiotics were tested to determine MIC and MBC.
(§4) A minimum inhibitory concentration is the lowest level of antibiotic needed to cause an inhibition to bacterial growth in culture medium whereas, the minimum bactericidal concentration is the lowest concentration of antibiotic to achieve a 100% killing of bacteria. Thus, these two values are the practical indices of intensity of bacterial resistance to a given antibiotic. On the other hand, a break-even point of any antibiotic indicates the attainable blood levels after an administration of full dose, in human/animal body. Thus, this point indicates the practical dosage of administering any given antibiotic effectively and beyond this point, even if an antibiotic is found to act effectively in experimental situation—such dose cannot be administered in a clinical situation.

[2] = system: β-haemolytic streptococci; experiment: Broth Macro Dilution Test, MIC and MBC; type: cell-based; settings: antibiotic alone, read-out: minimum inhibitory concentration (MIC)
Protocol: as §1, §2, §3, §4

[3] = highest serum concentration reached after the maximum therapeutic dose in-vivo; cited from earlier work
[4] = system: β-haemolytic streptococci; experiment: Broth tube test of NE with antibiotic at break point, percentage of killing; type: cell-based; settings: for bacterial growth in control tubes: NE and antibiotic added individually
Protocol: Since all the study isolates are resistant to the concerned antibiotics, each antibiotic is taken at its breakpoint concentration, (the highest serum concentration of that particular antibiotic reached after the maximum therapeutic dose in-vivo). The break points for various antibiotics are as follows:
Preparation of Neem Extract: Stock solution of neem extract (1 mg/ml) was prepared, filtered and autoclaved. It was used in 4 concentrations—1000 μg/ml; 500 μg/ml; 250 μg/ml; 125 μg/ml.
A set of four tubes with variable concentrations of the extract is prepared and to each of these tubes, the break point concentration of antibiotics is added. Now, these sets are inoculated with the study isolate in the same manner as per the broth dilution procedure. A set of six controls is inoculated with each isolate—in parallel with the main experiment.
2. Only antibiotic solution
3. Medium and antibiotic solution with inoculum
5. Only Neem extract at 250 μg/ml
6. Medium with Neem Extract and inoculum
Reading the test All the tests and control tubes are observed for visible turbidity of growth first. Since all the study isolates were earlier confirmed to be resistant to the antibiotics, the bacterial growth is expected at the breakpoint concentration of the antibiotic. Any reduction in the turbidity as compared to the control tube no. 3 is noted as a possible additive or synergistic effect of the neem extract with the antibiotic. In absence of such effect, the tubes may show growth matching with the control no. 4.
In case of a positive result, further sub-culturing was taken up, on solid media for colony counts with a calibrated loop. The colony counts could be noted by a semi quantitative method as 101 to 10^5 CFU/ml (Colony forming units). This is finally expressed as the percentage of killing as compared to the colony count obtained with control no. 4. Usually control tubes no. 3, 4 and 6 had similar colony counts.

[5] = system: Staphylococcus aureus; experiment: Agar Dilution Method of Sensitivity testing, NE alone and NE + antibiotic; type: cell-based; settings: for Growth Patterns after addition of NE: no. of cultures +++ (growth) / Growth Patterns after addition of NE: no. of cultures −−− (inhibition of growth): resistant S. aureus cultures, 48 hours
Protocol: Two kinds of investigations were carried-out using these bacterial isolates—using an Agar Dilution Method of Sensitivity testing.
i) To ascertain whether, NE can work as an antibacterial substance on its own. For this purpose, a stock-solution of NE was prepared and was sterilized as described in the preliminary experiments.
ii) This stock-solution was dispensed into the culture medium (Mueller Hinton Agar) so as to provide while; the medium was in liquid form. Four different concentrations of NE, viz.
iii) This medium was poured into petri dishes and allowed to solidify. Resistant cultures were inoculated on to these plates and after incubation for 48 hours, the growth patterns were assessed.
iv) The experiments were run in triplicate, for each concentration—as per standard practices of microbiological testing procedures.
i) The culture medium (Mueller Hinton Agar) was melted and distributed into a number of test tubes.
ii) The stock solution of NE was dispensed into these test tubes in four different concentrations viz.
iii) In the same medium, one of the antibiotics under investigation was also added so as to provide a variable concentration (at break-even point concentration) as described below:
iv) The culture medium containing NE extract+the antibiotic were poured into petri dishes and allowed to solidify.
v) The resistant bacterial strains were inoculated onto these plates, incubated for 48 hours and the growth patterns were studied on each plate.
These cultures were obtained various clinical samples, such as sputum, non-healing infected wounds, throat swabs etc.

[6] = antibiotic at break-even point + NE 125 μg/mL
[7] = antibiotic at break-even point + NE 250 μg/mL
[8] = antibiotic at break-even point + NE 500 μg/mL
[9] = antibiotic at break-even point + NE 1000 μg/mL

For `CC[C@H]1OC(=O)[C@H](C)[C@@H](O[C@H]2C[C@@](C)(OC)[C@@H](O)[C@H](C)O2)[C@H](C)[C@@H](O[C@@H]2O[C@H](C)C[C@H](N(C)C)[C@H]2O)[C@](C)(O)C[C@@H](C)C(=O)[C@H](C)[C@@H](O)[C@]1(C)O` [Erythromycin], the MBC [1] was > 256 µg/mL, the MIC ([2]; Example 8: isolate from throat swab culture) was 64 µg/mL (≈ 87.2 µM) and the MIC ([2]; Example 9: isolate from sputum culture) was 32 µg/mL (≈ 43.6 µM). For the same compound, the break point [3] was 4 µg/mL, the “bacterial growth in control tubes” value ([4]; Example 8 isolate) was “unhindered” and the bactericidal effect ([4]; Example 8 isolate, antibiotic 4 μg/ml combined with NE 1000 μg/ml) was 99%. The bactericidal effect ([4]; Example 8 isolate, antibiotic 4 μg/ml combined with NE 125, 250 and 500 μg/ml) was 100%, the “bacterial growth in control tubes” value ([4]; Example 9 isolate) was “unhindered” and the bactericidal effect ([4]; Example 9 isolate, antibiotic at break even point combined with NE 250 μg/ml and 125 μg/ml) was 99%. For the same compound, the killing ([4]; Example 9 isolate, antibiotic at break-even point combined with NE 500 μg/ml or 1000 μg/ml) was 50%, the “clinical strains sensitized by NE to the antibiotic” value ([5]; 102 resistant S. aureus cultures, NE + antibiotic) was 50% and the “Growth Patterns after addition of NE: no. of cultures +++ (growth)” value (shortened to “Growth Patterns … no. of cultures +++ (growth)”) [5, 6] was 72. For the same compound, the “Growth Patterns after addition of NE: no. of cultures −−− (inhibition of growth)” value [5, 6] was 30, the “Growth Patterns … no. of cultures +++ (growth)” value [5, 7] was 66 and the “Growth Patterns after addition of NE: no. of cultures −−− (inhibition of growth)” value [5, 7] was 36. For the same compound, the “Growth Patterns … no. of cultures +++ (growth)” value [5, 8] was 61, the “Growth Patterns after addition of NE: no. of cultures −−− (inhibition of growth)” value [5, 8] was 41 and the “Growth Patterns … no. of cultures +++ (growth)” value [5, 9] was 51. For the same compound, the “Growth Patterns after addition of NE: no. of cultures −−− (inhibition of growth)” value [5, 9] was 51.
